From US11078228B2, “Ectonucleotidase inhibitors and methods of use thereof” (Calithera Biosciences, Inc., priority 2018, dated 2021)
Where two headings read alike, the source gives them in different places.

Legend:
[1] = system: CT26 cells; experiment: CT26 subcutaneous tumor model in Balb/c mice, tumor volume; format: in vivo, mouse; conditions: 100 mg/kg orally BID from day one post implant
Experimental: Compounds of the invention show potent anti-tumor effects, evidenced in reducing tumor volume in a mouse model. In one model, EG7 cells were implanted subcutaneously into C57BL/6 mice. Compound 9 or vehicle was orally administered BID starting day one post implant (N=10 per group). […] In another model, EG7 cells were implanted subcutaneously into C57BL/6 mice. Compound 9 was orally administered BID (100 mg/kg) starting day one post implant (N=10 per group). Vehicle was orally administered BID starting day one post implant (N=20) until day five post implant, at which time, mice were randomized by tumor volume into two groups. Compound 9 (100 mg/kg) or vehicle was orally administered BID to N=10 per group starting day six post implant. […] FIGS. 13B-D show individual replications of this measurement for each dosing. FIG. 13B is vehicle. FIG. 13C is dosing of Compound 9 started on day 1. FIG. 13D is Compound 9 started on day 6. In another model, CT26 cells were implanted subcutaneously into Balb/c mice. 100 mg/kg Compound 9 or vehicle was orally administered BID starting day one post implant (N=10 per group).

[2] = system: Human CD8+ T cells; experiment: Reversal of AMP-mediated suppression of CD8+ T cells; format: cell-based; conditions: T-cell, 96 h, 4 days
Experimental: Human CD8+ T cells were labeled with CellTrace CFSE and then pre-incubated with an adenosine deaminase inhibitor and Compound 9 or vehicle for 20 minutes. 20 μM AMP was added for assessing T cell proliferation and CD25 expression. 10 μM AMP was added for assessing cytokine production. T cells were activated with α-CD3, α-CD28, and hIL2. After 4 days, proliferation and CD25 expression were assessed by flow cytometry and cytokine levels in the supernatant were measured by ELISA. EC50s were determined using a four-parameter dose-response curve equation.

[3] = biological target: human CD39 (Homo sapiens (Human), UniProt P49961); experiment: Cell surface CD39 activity, K562 cells expressing human CD39, Kinase-Glo; format: cell-based
Experimental: (§1) Using Compound 9, the activity of cell surface CD39 was assessed using K562 cells expressing human CD39 and Kinase-Glo. Activity of recombinant human ENTPD2 and ENTPD3 was assessed using a malachite green assay. […] Compound 9 was screened in the Eurofins Safety Screen Panel and the Eurofins Express Diversity Kinase Profile Panel. In the Safety Panel, 1/87 targets were inhibited at >50% at 10 μM of Compound 9. The PDE3 enzyme was inhibited at 59%.

[4] = biological target: recombinant human ENTPD2 (Homo sapiens (Human), UniProt Q9Y5L3); experiment: Recombinant human ENTPD2 malachite green assay; format: biochemical
Experimental: as §1

[5] = biological target: recombinant human ENTPD3 (Homo sapiens (Human), UniProt O75355); experiment: Recombinant human ENTPD3 malachite green assay; format: biochemical
Experimental: as §1

[6] = system: Eurofins Safety Screen Panel (87 targets); experiment: Eurofins Safety Screen Panel; conditions: 10 μM
Experimental: as §1

[7] = biological target: Eurofins Express Diversity Kinase Profile Panel (45 targets); experiment: Eurofins Express Diversity Kinase Profile Panel; format: biochemical
Experimental: as §1

[8] = system: Human CD8+ T cells; experiment: Proliferation of human CD8+ T cells, CellTrace CFSE flow cytometry; format: cell-based; conditions: 100 μM, 4 days
Experimental: Viability of EG7 and A375 cells treated with 100 μM Compound 9 was measured using CellTiter-Glo after 3 days. Proliferation of human CD8+ T cells was measured by flow cytometry after 4 days of treatment with 100 μM Compound 9 using CellTrace CFSE Cell Proliferation Kit.

[9] = biological target: mouse plasma CD73 (Mus musculus (Mouse), UniProt Q61503); experiment: Oral dosing pharmacodynamics: CD73 inhibition in plasma of dosed mice; format: in vivo; conditions: single oral dose 50 mg/kg, plasma 2 hours post dose
Experimental: Single dose Compound 9 (50 mg/kg) was administered orally to mice and plasma was collected at indicated time points. Compound 9 levels were measured by LC/MS. Plasma was harvested from mice 2 hours post dose and spiked with ^15N5-AMP and a TNAP inhibitor. ^15N5-ADO levels were measured by LC/MS.

[10] = biological target: CD73 activity in cancer patient serum (Homo sapiens (Human), UniProt P21589); experiment: CD73 activity in cancer patient serum, LC/MS conversion of 15N5-AMP to 15N5-ADO; format: biochemical; conditions: TNAP inhibitor present
Experimental: Serum was procured from Discovery Life Sciences. Serum from head and neck squamous cell carcinoma (HNSCC), ovarian cancer, triple-negative breast cancer and esophageal cancer patients were incubated with a serial dilution of Compound 9 in the presence of a TNAP inhibitor. Conversion of ^15N5-AMP to ^15N5-ADO was measured by LC/MS. FIG. 10A depicts the sub-nanomolar inhibition of HNSCC serum. FIG. 10B depicts the sub-nanomolar inhibition of ovarian cancer serum. FIG. 10C depicts the sub-nanomolar inhibition of TNBC serum. FIG. 10D depicts the sub-nanomolar inhibition of esophageal cancer serum.

CD73 activity in cancer patient serum, sequence (P21589 27-574): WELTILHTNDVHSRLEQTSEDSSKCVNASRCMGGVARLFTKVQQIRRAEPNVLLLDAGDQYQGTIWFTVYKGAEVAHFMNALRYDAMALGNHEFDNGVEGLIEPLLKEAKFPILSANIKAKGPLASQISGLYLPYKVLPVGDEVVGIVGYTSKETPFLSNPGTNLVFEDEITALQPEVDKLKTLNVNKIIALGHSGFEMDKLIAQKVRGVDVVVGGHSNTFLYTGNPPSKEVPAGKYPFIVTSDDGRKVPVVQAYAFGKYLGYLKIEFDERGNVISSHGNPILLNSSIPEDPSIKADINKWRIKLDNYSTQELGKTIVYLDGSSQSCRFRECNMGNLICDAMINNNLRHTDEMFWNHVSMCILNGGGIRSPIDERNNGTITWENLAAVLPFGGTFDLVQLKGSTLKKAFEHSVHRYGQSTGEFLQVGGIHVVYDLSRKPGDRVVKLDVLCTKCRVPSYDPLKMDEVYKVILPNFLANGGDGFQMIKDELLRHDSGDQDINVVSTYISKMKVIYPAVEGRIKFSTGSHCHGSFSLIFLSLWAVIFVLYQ
recombinant human ENTPD3, sequence (O75355 whole entry): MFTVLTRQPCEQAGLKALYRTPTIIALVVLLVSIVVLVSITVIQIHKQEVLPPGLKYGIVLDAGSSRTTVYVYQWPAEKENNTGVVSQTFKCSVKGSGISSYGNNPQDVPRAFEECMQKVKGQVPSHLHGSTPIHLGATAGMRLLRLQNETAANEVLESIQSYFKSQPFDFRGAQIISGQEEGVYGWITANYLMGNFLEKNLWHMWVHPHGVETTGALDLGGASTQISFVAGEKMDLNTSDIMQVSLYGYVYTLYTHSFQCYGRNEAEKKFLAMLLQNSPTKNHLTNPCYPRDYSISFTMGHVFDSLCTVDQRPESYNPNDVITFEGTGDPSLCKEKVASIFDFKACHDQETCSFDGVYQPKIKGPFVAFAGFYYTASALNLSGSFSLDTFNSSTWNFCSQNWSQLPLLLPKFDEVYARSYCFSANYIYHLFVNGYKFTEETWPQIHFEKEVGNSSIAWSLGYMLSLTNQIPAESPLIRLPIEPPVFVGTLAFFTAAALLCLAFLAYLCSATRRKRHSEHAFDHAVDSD
human CD39, sequence (P49961 whole entry): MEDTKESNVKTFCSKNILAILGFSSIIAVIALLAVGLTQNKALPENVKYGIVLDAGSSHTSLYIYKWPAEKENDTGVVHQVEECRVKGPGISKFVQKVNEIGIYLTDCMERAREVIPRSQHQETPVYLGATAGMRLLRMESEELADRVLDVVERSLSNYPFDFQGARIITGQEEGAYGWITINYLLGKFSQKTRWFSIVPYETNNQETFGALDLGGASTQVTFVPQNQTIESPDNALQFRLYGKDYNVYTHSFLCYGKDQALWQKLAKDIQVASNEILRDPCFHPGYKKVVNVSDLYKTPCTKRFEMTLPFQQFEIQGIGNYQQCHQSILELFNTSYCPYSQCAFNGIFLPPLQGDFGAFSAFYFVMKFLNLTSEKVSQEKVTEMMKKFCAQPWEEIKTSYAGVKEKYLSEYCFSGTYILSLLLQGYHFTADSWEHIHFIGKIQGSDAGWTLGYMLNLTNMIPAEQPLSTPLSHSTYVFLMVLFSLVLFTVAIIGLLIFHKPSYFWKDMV
mouse plasma CD73, sequence (Q61503 29-576): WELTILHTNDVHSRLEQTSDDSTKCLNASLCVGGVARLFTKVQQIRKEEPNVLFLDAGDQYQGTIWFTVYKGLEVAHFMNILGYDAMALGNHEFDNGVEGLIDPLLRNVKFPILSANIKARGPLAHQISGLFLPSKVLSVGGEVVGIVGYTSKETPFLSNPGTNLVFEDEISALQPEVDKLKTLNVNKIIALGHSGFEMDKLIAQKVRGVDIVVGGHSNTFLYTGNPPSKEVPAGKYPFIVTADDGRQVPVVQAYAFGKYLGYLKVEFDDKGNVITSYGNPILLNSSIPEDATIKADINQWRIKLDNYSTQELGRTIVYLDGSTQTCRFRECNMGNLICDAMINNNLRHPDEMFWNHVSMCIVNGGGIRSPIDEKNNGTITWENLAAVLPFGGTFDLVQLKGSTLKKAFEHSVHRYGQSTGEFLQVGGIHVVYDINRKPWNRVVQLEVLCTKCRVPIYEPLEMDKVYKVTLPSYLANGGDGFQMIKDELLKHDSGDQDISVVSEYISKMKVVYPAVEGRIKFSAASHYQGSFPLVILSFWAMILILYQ
recombinant human ENTPD2, sequence (Q9Y5L3 whole entry): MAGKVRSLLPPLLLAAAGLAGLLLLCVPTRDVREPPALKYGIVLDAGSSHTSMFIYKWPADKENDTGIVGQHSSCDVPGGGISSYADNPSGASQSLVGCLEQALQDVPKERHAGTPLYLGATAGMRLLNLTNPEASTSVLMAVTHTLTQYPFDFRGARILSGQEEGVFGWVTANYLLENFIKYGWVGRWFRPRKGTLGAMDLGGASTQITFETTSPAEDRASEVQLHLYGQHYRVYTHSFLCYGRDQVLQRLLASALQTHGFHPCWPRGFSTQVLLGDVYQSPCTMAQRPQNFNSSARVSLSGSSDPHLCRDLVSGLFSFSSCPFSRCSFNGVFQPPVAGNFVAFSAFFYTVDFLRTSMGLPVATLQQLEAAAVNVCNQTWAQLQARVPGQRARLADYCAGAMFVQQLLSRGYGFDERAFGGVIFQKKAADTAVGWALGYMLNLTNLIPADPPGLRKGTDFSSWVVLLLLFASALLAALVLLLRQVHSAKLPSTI

EC50 ([2]; 10 μM AMP, ELISA, read-out: EC50 for Granzyme B production): 5.6 nM | EC50 ([2]; 10 μM AMP, ELISA, read-out: EC50 for IFNγ production): 4.5 nM | EC50 ([2]; 20 μM AMP, flow cytometry, read-out: EC50 for CD8+ T cell activation (CD25 expression)): 9.6 nM | IC50 [3]: > 10000 nM | IC50 [4]: > 10000 nM | IC50 [5]: > 10000 nM | Kinase Panel targets inhibited at >50% [7]: none of the 45 targets | inhibition at 50 mg/kg [9]: 92% | inhibition of CD73 activity in esophageal cancer serum ([10]; esophageal cancer serum): sub-nanomolar | inhibition of CD73 activity in HNSCC serum ([10]; head and neck squamous cell carcinoma serum): sub-nanomolar | inhibition of CD73 activity in ovarian cancer serum ([10]; ovarian cancer serum): sub-nanomolar | inhibition of CD73 activity in TNBC serum ([10]; triple-negative breast cancer serum): sub-nanomolar
Compound: C#C[C@@]1(O)[C@@H](COC(Cc2ccc(N3CCCNC3=O)cc2)(C(=O)O)C(=O)O)O[C@@H](n2cnc3c(N)nc(Cl)nc32)[C@@H]1O [Compound 9, 2-(((2R,3S,4R,5R)-5-(6-amino-2-chloro-9H-purin-9-yl)-3-ethynyl-3,4-dihydroxytetrahydrofuran-2-yl)methoxy)-2-(4-(2-oxotetrahydropyrimidin-1 (2H)-yl)benzyl)malonic acid]
tumor volume, CT26 [1]: decrease in tumor volume compared to vehicle | EC50 ([2]; 20 μM AMP, flow cytometry, read-out: EC50 for CD8+ T cell proliferation): 11.6 nM | Safety Panel targets inhibited at >50% [6]: 1/87 | % divided cells of human CD8+ T cells [8]: comparable % divided cells
